According to patent US5145872A, “Peptides with pharmaceutical activity” (Zambon Group, S.p.A., priority 1988, dated 1992):
Where “and” joins values, the source holds several entries; their conditions need not be identical. Equal entries are not always repeated. Entries after “also recorded” stand apart in the source; their conditions may differ.

How the values were obtained:
[1] = tested on: methionine-enkephalin-induced analgesia; test: Potentiation of methionine-enkephalin-induced analgesia (hot plate test), product given i.v.; assay type: in vivo, Male Swiss mice; details: for Reaction time areas, Product: product alone
Description: (§1) Male Swiss mice (CD Charles River) weighing 22-24 g received intracerebroventricular (i.c.v.) injection of methionineenkephalin as described by Haley and Mc Cormick [Br. J. Pharmacol., 12, 12-15, (1957)].
(§2) Methionine-enkephalin was dissolved in distilled water and microinjected in a volume of 10 μl/mouse and in a dose analgesic in less than 30% of animals. The dose (10.25 or 50 μg/mouse) was chosen at the beginning of each experience depending on each batch's analgesic activity.
(§3) The antinociceptive effect was tested by the hot plate test as described by Eddy and Leimbach [(J. Pharmacol. Exptl. Therap., 107, 385-393, (1953)]. The time in seconds from contact with the plate (51.5° C.) to paw licking or Jumping accurrence was recorded as the response latency.
(§4) Animals were removed as soon as they reacted or after 30 seconds if they at 3, 6, 9, 12 and 15 minutes after the i.c.v. treatment and the latency times measured were used to calculate the reaction time areas. At first the compounds of formula I and Bestatin were administered simultaneously to methionine-enkephalin (dissolved in the same solution) by intracerebroventricular treatment to evaluate their activity without any interference due to absorbtion or diffusion through the blood-brain barrier.
Then the compounds of formula I and Bestatin were tested after intravenous (i.v.) administration to study their diffusion across blood-brain barrier.
The administration i.v. of the compounds of formula I and of Bestatin was simultaneous to methionine-enkephalin administration i.c.v.

[2] = tested on: methionine-enkephalin-induced analgesia; test: Potentiation of methionine-enkephalin-induced analgesia (hot plate test), product given i.c.v.; assay type: in vivo, Male Swiss mice; details: for Reaction time areas, Product Met-enk: product 0.16 μmoles i.c.v. together with Met-enk i.c.v., hot plate; for Reaction time areas, Product: product alone, 0.16 μmoles i.c.v., hot plate 51.5° C., 3-15 min
Description: as §1, §2, §3, §4

[3] = product 0.05 mmoles/kg i.v. simultaneous to Met-enk i.c.v.
[4] = product 0.08 mmoles/kg i.v. simultaneous to Met-enk i.c.v.

Compound: CS(=O)(=O)c1ccc(C[C@@H](N)[C@H](O)C(=O)NC2(C(=O)O)CCCC2)cc1 [Compound 2, 1-[(2S,3R)-3-amino-2-hydroxy-4-(4-methylsulfonyl-phenyl)-butanoyl]-amino-1-cyclopentanecarboxylic acid]
- Reaction time areas, Product Met-enk [1, 3]: 243 ± 15.9
- Reaction time areas, Product Met-enk [1, 4]: 233 ± 10.1
- Reaction time areas, Product ([1]; 0.05 mmoles/kg i.v.): 190 ± 7.8
- Reaction time areas, Product ([1]; 0.08 mmoles/kg i.v.): 191 ± 8.5

Compound: Methionine-enkephalin [Met-enk]
- Reaction time areas, Met-enk ([2]; Met-enk alone i.c.v., control group of each Table 1 experiment): 207 ± 15.6 and 173 ± 11.2 and 188 ± 4.7
- Reaction time areas, Met-enk ([1]; Met-enk alone i.c.v., control group of each Table 2 experiment): 199 ± 14.0 and 197 ± 16.7 and 208 ± 8.3 and 200 ± 6.1 and 197 ± 9.7

Compound: CS(=O)(=O)c1ccc(C[C@@H](N)[C@H](O)C(=O)NC2(C(=O)O)CCC2)cc1 [Compound 4, 1-[(2S,3R)-3-amino-2-hydroxy-4-(4-methylsulfonyl-phenyl)-butanoyl]-amino-1-cyclobutanecarboxylic acid]
- Reaction time areas, Product Met-enk [2]: 290 ± 17.1
- Reaction time areas, Product [2]: 179 ± 9.9

Compound: CC(C)C[C@H](NC(=O)[C@@H](O)[C@H](N)Cc1ccccc1)C(=O)O [Bestatin, [(2S,3R)-3-amino-2-hydroxy-4-phenyl-butanoyl]-L-leucine]
- Reaction time areas, Product Met-enk [2]: 268 ± 11.3
- Reaction time areas, Product [2]: 222 ± 13.3
- Activity of enhancing analgesia induced by opioids when administered by intravenous route ([1]; intravenous route, in words): practically inactive; also recorded: not active
- Reaction time areas, Product Met-enk [1, 3]: 202 ± 6.9
- Reaction time areas, Product Met-enk [1, 4]: 212 ± 10.0
- Reaction time areas, Product ([1]; 0.05 mmoles/kg i.v.): 173 ± 3.7
- Reaction time areas, Product ([1]; 0.08 mmoles/kg i.v.): 182 ± 8.3
